Legend:
[1] = test system: sAPPβ release in SH-SY5Y cells; experiment: sAPPβ release assay; assay type: cell-based; conditions: 17 h incubation
Protocol: SH-SY5Y cells were cultured in DMEM/F-12 with Glutamax, 10% FCS and 1% non-essential amino acids and cryopreserved and stored at −140° C. at a concentration of 7.5−9.5×10^6 cells per vial. […] The cell plates were then incubated for 7-24 h at 37° C., 5% CO2. The cell medium was removed, followed by addition of 30 μL compound diluted in DMEM/F-12 with Glutamax, 10% FCS, 1% non-essential amino acids and 1% PeSt to a final conc. of 1% DMSO. The compounds were incubated with the cells for 17 h (overnight) at 37° C., 5% CO2. Meso Scale Discovery (MSD) plates were used for the detection of sAPPβ release. MSD sAPPβ plates were blocked in 1% BSA in Tris wash buffer (40 μL/well) for 1 h on shake at r.t. and washed 1 time in Tris wash buffer (40 μL/well). 20 μL of medium was transferred to the pre-blocked and washed MSD sAPPβ microplates, and the cell plates were further used in an ATP assay to measure cytotoxicity. The MSD plates were incubated with shaking at r.t. for 2 h and the media discarded. 10 μL detection antibody was added (1 nM) per well followed by incubation with shaking at r.t. for 2 h and then discarded. 40 μL Read Buffer was added per well and the plates were read in a SECTOR Imager.

[2] = biological target: T1, human β-Secretase (sBACE-Fc) (Homo sapiens (Human), UniProt P56817); experiment: Diluted TR-FRET assay; assay type: biochemical; conditions: diluted TR-FRET assay: 50 times less enzyme, 6.5 h reaction time at r.t.; read-out: IC50 in TR-FRET assay (IC50 from the diluted FRET assay)
Protocol: (§1) The cDNA for the soluble part of the human β-Secretase (AA 1-AA 460) was cloned using the ASP2-Fc10-1-IRES-GFP-neoK mammalian expression vector. The gene was fused to the Fc domain of IgG1 (affinity tag) and stably cloned into HEK 293 cells.
(§2) The enzyme (truncated form) was diluted to 6 μg/mL (stock 1.3 mg/mL) and the TruPoint BACE1 Substrate to 200 nM (stock 120 μM) in reaction buffer (NaAcetate, chaps, triton x-100, EDTA pH4.5). Enzyme and compound in dimethylsulphoxide (final DMSO concentration 5%) was mixed and pre-incubated for 10 minutes at RT. Substrate was then added and the reaction was incubated for 15 minutes at RT. The reaction was stopped with the addition of 0.35 vol Stop solution (NaAcetate, pH 9). The fluorescence of the product was measured on a Victor II plate reader with excitation wavelengths of 340-485 nm and emission wavelengths of 590-615 nm. The final concentration of the enzyme was 2.7 μg/ml; the final concentration of substrate was 100 nM (Km of ˜250 nM). The dimethylsulphoxide control, instead of test compound, defined the 100% activity level and 0% activity was defined by wells lacking enzyme (replaced with reaction buffer) or by a saturating dose of a known inhibitor, 2-amino-6-[3-β-methoxyphenyl)phenyl]-3,6-dimethyl-5H-pyrimidin-4-one.
Compounds with a high affinity were further tested in a diluted TR-FRET assay, conditions as described above for the TR-FRET assay, but with 50 times less enzyme and a 6.5 h long reaction time at r.t. in the dark.

[3] = biological target: T1, human β-Secretase (sBACE-Fc); experiment: TR-FRET assay; assay type: biochemical; conditions: standard TR-FRET assay, 15 minutes reaction at RT
Protocol: The β-secretase enzyme used in the TR-FRET is prepared as follows:
as §1, §2

T1 sequence (P56817 22-460): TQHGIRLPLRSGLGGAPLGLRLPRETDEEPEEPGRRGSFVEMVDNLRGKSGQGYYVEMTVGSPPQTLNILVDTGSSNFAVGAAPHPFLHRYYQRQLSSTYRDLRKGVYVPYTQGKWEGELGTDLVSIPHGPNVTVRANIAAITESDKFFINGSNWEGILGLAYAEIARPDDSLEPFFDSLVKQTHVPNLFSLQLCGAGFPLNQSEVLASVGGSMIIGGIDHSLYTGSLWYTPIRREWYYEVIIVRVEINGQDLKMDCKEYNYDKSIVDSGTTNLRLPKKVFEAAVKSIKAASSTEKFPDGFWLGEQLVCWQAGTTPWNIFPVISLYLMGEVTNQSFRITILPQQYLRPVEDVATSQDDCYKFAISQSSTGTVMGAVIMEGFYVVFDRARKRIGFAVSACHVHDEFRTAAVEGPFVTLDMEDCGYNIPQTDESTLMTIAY

SMILES | IC50 [1] [nM] | IC50 [2] [nM] | IC50 [3] [nM] | IC50 ([1]; Homo sapiens) [nM]
CO[C@H]1CC[C@]2(CC1)Cc1ccc(OCC3CC3)cc1[C@@]21N=C(C)C(N)=N1 (single isomer, unassigned; isomer 1) [4, isomer 1] | 0.9 | 3.7 |  | 
CO[C@H]1CC[C@]2(CC1)Cc1ccc(OCC3CCC3)cc1[C@@]21N=C(C)C(N)=N1 (single isomer, unassigned; isomer 1) [7, isomer 1] | 1.3 |  |  | 
CO[C@H]1CC[C@]2(CC1)Cc1ccc(OCC3CC3)cc1[C@]21N=C(C)C(N)=N1 (single isomer, unassigned; isomer 2) [4, isomer 2] |  |  | > 5000 | 
CO[C@H]1CC[C@]2(CC1)Cc1ccc(OCC3(C)CC3)cc1C21N=C(C)C(N)=N1 (stereo partly drawn) [Example 1, (1r,4r)-4-Methoxy-5″-methyl-6′-[(1-methylcyclopropyl)methoxy]-3′H-dispiro[cyclohexane-1,2′-indene-1′,2″-imidazol]-4″-amine] |  | 18 |  | 2.8
CO[C@H]1CC[C@]2(CC1)Cc1ccc(OCC3CC(F)(F)C3)cc1C21N=C(C)C(N)=N1 (stereo partly drawn) [Example 2, (1r,4r)-6′-[(3,3-Difluorocyclobutyl)methoxy]-4-methoxy-5″-methyl-3′H-dispiro[cyclohexane-1,2′-indene-1′,2″-imidazol]-4″-amine] |  |  | 50 | 8.4
CO[C@H]1CC[C@]2(CC1)Cc1ccc(OCC3CC3)cc1C21N=C(C)C(N)=N1 (stereo partly drawn) [Example 3, (1r,4r)-6′-(Cyclopropylmethoxy)-4-methoxy-5″-methyl-3′H-dispiro[cyclohexane-1,2′-indene-1′,2″-imidazol]-4″-amine] |  | 7.4 |  | 1.6
CO[C@H]1CC[C@]2(CC1)Cc1ccc(OCC3CC3(F)F)cc1C21N=C(C)C(N)=N1 (stereo partly drawn) [Example 5, (1r,4r)-6′-[(2,2-Difluorocyclopropyl)methoxy]-4-methoxy-5″-methyl-3′H-dispiro[cyclohexane-1,2′-indene-1′,2″-imidazol]-4″-amine] |  | 13 |  | 2.3
CO[C@H]1CC[C@]2(CC1)Cc1ccc(OCC3CCC3)cc1C21N=C(C)C(N)=N1 (stereo partly drawn) [Example 6, (1r,4r)-6′-(Cyclobutylmethoxy)-4-methoxy-5″-methyl-3′H-dispiro[cyclohexane-1,2′-indene-1′,2″-imidazol]-4″-amine] |  |  |  | 1.5
CO[C@H]1CC[C@]2(CC1)Cc1ccc(OCCC3CC3)cc1C21N=C(C)C(N)=N1 (stereo partly drawn) [Example 8, (1r,4r)-6′-(2-Cyclopropylethoxy)-4-methoxy-5″-methyl-3′H-dispiro[cyclohexane-1,2′-indene-1′,2″-imidazol]-4″-amine] |  | 3.7 |  | 0.8

Reference: US9000185B2, “Cycloalkyl ether compounds and their use as BACE inhibitors” (AstraZeneca AB, priority 2012, dated 2015)
